Laboratory results reported in DBAASP.
In brackets after ≈: the same amount, converted by molar mass. Blank lines part the entries; values can stand above or below the molecule they belong to.

Tests used:
Test in all cases: ≥ marks a high value that may be exact or a test limit, other limits are often not marked, values filed in µg/mL are converted to µM
[1] = system: Pasteurella multocida
[2] = system: Candida albicans ATCC 90028
[3] = system: Batrachochytrium dendrobatidis
[4] = system: Staphylococcus epidermidis
[5] = system: Listeria innocua
[6] = system: Bacillus cereus
[7] = system: Candida albicans SC5314
[8] = system: Staphylococcus aureus
[9] = system: Leuconostoc lactis
[10] = system: Micrococcus luteus
[11] = system: Candida parapsilosis ATCC 22019
[12] = system: Escherichia coli
[13] = system: Candida krusei ATCC 6258
[14] = system: Streptococcus uberis
[15] = system: Bacillus megaterium
[16] = system: Escherichia coli ATCC 25922
[17] = system: Candida albicans ATCC 10231
[18] = system: Corynebacterium glutamicum ATCC 13032
[19] = system: Pseudomonas aeruginosa ATCC 27853
[20] = system: Aureobasidium pullulans
[21] = system: Bacillus subtilis ATCC 23857
[22] = system: Staphylococcus aureus ATCC 9144
[23] = system: Staphylococcus epidermidis ATCC 12228
[24] = system: Staphylococcus aureus 75
[25] = system: Escherichia coli 804
[26] = system: Acinetobacter baumannii 97830
[27] = system: Pseudomonas aeruginosa 73
[28] = system: Klebsiella pneumoniae ATCC 700603
[29] = system: Staphylococcus aureus ATCC 29213
[30] = system: Escherichia coli 780
[31] = system: Pseudomonas aeruginosa ATCC 9027
[32] = system: Acinetobacter baumannii 9931
[33] = system: Staphylococcus aureus 113
[34] = system: Acinetobacter baumannii ATCC 19606
[35] = system: Pseudomonas aeruginosa 50
[36] = system: Escherichia coli ATCC 11229
[37] = system: Staphylococcus aureus ATCC 25923
[38] = system: Escherichia coli ATCC 35218
[39] = system: Klebsiella pneumoniae ATCC 13866
[40] = system: Staphylococcus aureus ATCC 33591
[41] = system: Bacillus subtilis
[42] = system: Staphylococcus aureus ATCC 2592

Compound: CC[C@H](C)[C@H](NC(=O)[C@@H](NC(=O)CN)C(C)C)C(=O)N[C@@H](CC(=O)O)C(=O)N[C@@H](C)C(=O)N[C@@H](C)C(=O)N[C@@H](CCCCN)C(=O)N[C@@H](CCCCN)C(=O)N[C@@H](Cc1c[nH]c2ccccc12)C(=O)N[C@@H](CC(N)=O)C(=O)N[C@H](C(=O)N[C@@H](CC(C)C)C(=O)N[C@@H](CCCCN)C(=O)N[C@@H](CC(N)=O)C(=O)N[C@@H](CC(C)C)C(=O)N[C@@H](Cc1ccccc1)C(N)=O)C(C)C [GVIDAAKKVVNVLKNLF]
- MIC [1]: 27.3 µM (≈ 49.6 µg/mL)
- MIC [2]: ≥ 70 µM
- MIC [3]: ≥ 100 µM
- MIC [4]: 6.56 µM (≈ 11.9 µg/mL)
- MIC [5]: 27.3 µM (≈ 49.6 µg/mL)
- MIC [6]: 13.7 µM (≈ 24.8 µg/mL)
- MIC [7]: ≥ 35 µM
- MIC [8]: 13.7 µM (≈ 24.8 µg/mL)
- MIC [9]: 1.64 µM (≈ 2.98 µg/mL)
- MIC [10]: 27.3 µM (≈ 49.6 µg/mL)
- MIC [11]: ≥ 70 µM
- MIC [12]: 54.7 µM (≈ 99.3 µg/mL)
- MIC [13]: ≥ 35 µM
- MIC [14]: 6.56 µM (≈ 11.9 µg/mL)

Compound: NC(=O)[C@H](Cc1c[nH]c2ccccc12)NC(=O)[C@H](CCCN=C(N)N)NC(=O)[C@H](Cc1c[nH]c2ccccc12)NC(=O)[C@H](Cc1c[nH]c2ccccc12)NC(=O)[C@H](Cc1c[nH]c2ccccc12)NC(=O)[C@H](CCCN=C(N)N)NC(=O)[C@@H](N)Cc1c[nH]c2ccccc12 [WRWWWRW]
- MIC [23]: 2 µM (≈ 2.52 µg/mL)
- MIC [24]: 4 µM (≈ 5.04 µg/mL)
- MIC [25]: 8 µM (≈ 10.1 µg/mL)
- MIC [26]: 8 µM (≈ 10.1 µg/mL)
- MIC [27]: ≥ 32 µM
- MIC [28]: 8 µM (≈ 10.1 µg/mL)
- MIC [29]: 8 µM (≈ 10.1 µg/mL)
- MIC [30]: 8 µM (≈ 10.1 µg/mL)
- MIC [19]: 16 µM (≈ 20.2 µg/mL)
- MIC [31]: 32 µM (≈ 40.3 µg/mL)
- MIC [32]: 8 µM (≈ 10.1 µg/mL)
- MIC [33]: 4 µM (≈ 5.04 µg/mL)
- MIC [21]: 4 µM (≈ 5.04 µg/mL)
- MIC [34]: 32 µM (≈ 40.3 µg/mL)
- MIC [35]: 16 µM (≈ 20.2 µg/mL)

Compound: CSCC[C@H](NC(=O)[C@H](CC(C)C)NC(=O)[C@H](CC(C)C)NC(=O)[C@H](CCCCN)NC(=O)[C@H](CCCN=C(N)N)NC(=O)[C@H](CCC(=O)O)NC(=O)[C@H](CC(C)C)NC(=O)[C@H](CC(C)C)NC(=O)[C@H](CO)NC(=O)[C@@H](N)CCSC)C(=O)N[C@@H](Cc1cnc[nH]1)C(=O)N[C@@H](Cc1ccccc1)C(=O)N[C@@H](CC(C)C)C(=O)N[C@@H](CCCN=C(N)N)C(=O)N[C@H](C(=O)O)C(C)C [MSLLERKLLMHFLRV]
- MIC [23]: 8.48 µM (≈ 16 µg/mL)
- MIC [36]: ≥ 33.9 µM
- MIC [37]: 8.48 µM (≈ 16 µg/mL)
- MIC [38]: ≥ 67.9 µM
- MIC [19]: 4.24 µM (≈ 8 µg/mL)
- MIC [39]: ≥ 33.9 µM
- MIC [40]: 8.48 µM (≈ 16 µg/mL)

Compound: CC[C@H](C)[C@H](NC(=O)[C@@H](NC(=O)[C@H](CO)NC(=O)CN)C(C)C)C(=O)N[C@@H](CCCN=C(N)N)C(=O)N[C@@H](C)C(=O)N[C@@H](CC(C)C)C(=O)N[C@@H](CCSC)C(=O)N[C@@H](CCCN=C(N)N)C(=O)N[C@@H](CCSC)C(=O)N[C@@H](Cc1ccccc1)C(=O)N[C@@H](C)C(=O)N[C@@H](CCCN=C(N)N)C(=O)N[C@@H](CC(C)C)C(=O)N[C@H](C(=O)NCC(=O)O)C(C)C [GSVIRALMRMFARLVG]
- MIC [23]: 4.5 µM (≈ 8 µg/mL)
- MIC [36]: ≥ 36 µM
- MIC [37]: 36 µM (≈ 64 µg/mL)
- MIC [38]: ≥ 36 µM
- MIC [29]: 36 µM (≈ 64 µg/mL)
- MIC [19]: 4.5 µM (≈ 8 µg/mL)
- MIC [39]: ≥ 36 µM
- MIC [40]: 4.5 µM (≈ 8 µg/mL)

Compound: CC(C)[C@H](N)C(=O)N[C@@H](CCCCN)C(=O)N[C@@H](CCCN=C(N)N)C(=O)N[C@@H](Cc1c[nH]c2ccccc12)C(=O)N[C@@H](CCCCN)C(=O)N[C@@H](CCCCN)C(=O)N[C@@H](Cc1c[nH]c2ccccc12)C(=O)N[C@@H](CCCCN)C(=O)N[C@@H](CCCN=C(N)N)C(=O)N[C@@H](CCCCN)C(=O)N[C@@H](Cc1c[nH]c2ccccc12)C(=O)N[C@@H](CCCCN)C(=O)N[C@@H](CCCCN)C(=O)N[C@@H](Cc1c[nH]c2ccccc12)C(=O)N[C@H](C(N)=O)C(C)C [VKRWKKWKRKWKKWV]
- MIC [16]: 1.6 µM (≈ 3.47 µg/mL)
- MIC [41]: 2.8 µM (≈ 6.08 µg/mL)
- MIC [7]: 2.8 µM (≈ 6.08 µg/mL)
- MIC [42]: 2.8 µM (≈ 6.08 µg/mL)

More lines, now with the values ahead:

- MIC [15]: 0.761 µM (≈ 0.999 µg/mL)
- MIC [16]: 23.8 µM (≈ 31.3 µg/mL)
- MIC [17]: 23.8 µM (≈ 31.3 µg/mL)
- MIC [18]: 1.52 µM (≈ 2 µg/mL)
- MIC [19]: 190 µM (≈ 250 µg/mL)
- MIC [10]: 23.8 µM (≈ 31.3 µg/mL)
- MIC [20]: 11.9 µM (≈ 15.6 µg/mL)
- MIC [21]: 2.97 µM (≈ 3.9 µg/mL)
- MIC [22]: ≥ 95.1 µM
Compound: C[C@H](NC(=O)[C@H](CCCCN)NC(=O)[C@H](Cc1c[nH]c2ccccc12)NC(=O)[C@H](Cc1c[nH]c2ccccc12)NC(=O)[C@H](Cc1c[nH]c2ccccc12)NC(=O)[C@@H]1CCCN1C(=O)[C@H](CCCCN)NC(=O)[C@H](CCCCN)NC(=O)CN)C(=O)N[C@@H](CCCCN)C(N)=O [GKKPWWWKAK]

- MIC [15]: 2.78 µM (≈ 3.9 µg/mL)
- MIC [16]: 44.5 µM (≈ 62.5 µg/mL)
- MIC [17]: 11.1 µM (≈ 15.6 µg/mL)
- MIC [18]: 5.56 µM (≈ 7.79 µg/mL)
- MIC [19]: 89.1 µM (≈ 125 µg/mL)
- MIC [10]: 11.1 µM (≈ 15.6 µg/mL)
- MIC [20]: 5.56 µM (≈ 7.79 µg/mL)
- MIC [21]: 5.56 µM (≈ 7.79 µg/mL)
- MIC [22]: ≥ 89.1 µM
Compound: C[C@H](NC(=O)[C@H](CCCCN)NC(=O)[C@H](Cc1c[nH]c2ccccc12)NC(=O)[C@H](Cc1c[nH]c2ccccc12)NC(=O)[C@H](Cc1c[nH]c2ccccc12)NC(=O)[C@H](Cc1c[nH]c2ccccc12)NC(=O)[C@H](CCCCN)NC(=O)[C@H](CCCCN)NC(=O)CN)C(=O)N[C@@H](CCCCN)C(N)=O [GKKWWWWKAK]

- MIC [23]: 2 µM (≈ 3.15 µg/mL)
- MIC [24]: 8 µM (≈ 12.6 µg/mL)
- MIC [25]: ≥ 32 µM
- MIC [26]: 16 µM (≈ 25.2 µg/mL)
- MIC [27]: 8 µM (≈ 12.6 µg/mL)
- MIC [28]: 16 µM (≈ 25.2 µg/mL)
- MIC [29]: 4 µM (≈ 6.29 µg/mL)
- MIC [30]: 16 µM (≈ 25.2 µg/mL)
- MIC [19]: 4 µM (≈ 6.29 µg/mL)
- MIC [31]: 8 µM (≈ 12.6 µg/mL)
- MIC [32]: 16 µM (≈ 25.2 µg/mL)
- MIC [33]: 4 µM (≈ 6.29 µg/mL)
- MIC [21]: 4 µM (≈ 6.29 µg/mL)
- MIC [34]: 16 µM (≈ 25.2 µg/mL)
- MIC [35]: 16 µM (≈ 25.2 µg/mL)
Compound: NC(=O)[C@H](Cc1c[nH]c2ccccc12)NC(=O)[C@H](CCCN=C(N)N)NC(=O)[C@H](CCCN=C(N)N)NC(=O)[C@H](Cc1c[nH]c2ccccc12)NC(=O)[C@H](Cc1c[nH]c2ccccc12)NC(=O)[C@H](Cc1c[nH]c2ccccc12)NC(=O)[C@H](CCCN=C(N)N)NC(=O)[C@H](CCCN=C(N)N)NC(=O)[C@@H](N)Cc1c[nH]c2ccccc12 [WRRWWWRRW]
